Laboratory results: the NIST ThermoML archive (doi:10.1021/je060271a)

Conditions: 323.14 K, Liquid, Vibrating tube method

CCCCCCC(=O)OCC(COC(=O)CCCCCC)(COC(=O)CCCCCC)COC(=O)CCCCCC [pentaerythritol tetraheptanoate]
Conditions | mass density [kg/m3]
1867.1 kPa | 956.8
1879.2 kPa | 956.9
1889.3 kPa | 956.8
1901.4 kPa | 957
1911.9 kPa | 956.9
1922.6 kPa | 956.9
1933.4 kPa | 956.9
1945.7 kPa | 956.9
1956.8 kPa | 957
1967.4 kPa | 957
1980.8 kPa | 957
1992.6 kPa | 957
2003.7 kPa | 957.1
2015.1 kPa | 956.9
2026.2 kPa | 956.9
2040.3 kPa | 957.1
2051.7 kPa | 957
2063 kPa | 957
2075 kPa | 956.9
2089.2 kPa | 957.1
2101.9 kPa | 957
2226.1 kPa | 957
2302.3 kPa | 957.1
2543.1 kPa | 957.3
2581.9 kPa | 957.3
2614.7 kPa | 957.4
2750.1 kPa | 957.5
2958.7 kPa | 957.6
3185.1 kPa | 957.8
3256.6 kPa | 957.9
3279.3 kPa | 957.8
3302.3 kPa | 957.9
3329.7 kPa | 957.8
3352.8 kPa | 957.8
3377 kPa | 957.9
3405.8 kPa | 957.9
3429.7 kPa | 958.1
3454.8 kPa | 958
3479.6 kPa | 958
3509.6 kPa | 958
3534.6 kPa | 958.1
3565.2 kPa | 957.9
3591.4 kPa | 958.1
3617.6 kPa | 958
3974.4 kPa | 958.4
4012.4 kPa | 958.4
4041.1 kPa | 958.3
4057.6 kPa | 958.4
4063.1 kPa | 958.4
4064.9 kPa | 958.3
4065.5 kPa | 958.5
4066.2 kPa | 958.5
4067.3 kPa | 958.5
4068.5 kPa | 958.5
4069.4 kPa | 958.6
4069.5 kPa | 958.5
4070.6 kPa | 958.4
4070.9 kPa | 958.4
4071.6 kPa | 958.4
4087 kPa | 958.4
4104.9 kPa | 958.6
4128 kPa | 958.5
4142.2 kPa | 958.4
4163.9 kPa | 958.4
4182.2 kPa | 958.4
4200.8 kPa | 958.5
4223.1 kPa | 958.5
4242.2 kPa | 958.5
4261 kPa | 958.6
4283.7 kPa | 958.6
4303.6 kPa | 958.5
4323.2 kPa | 958.5
4347.4 kPa | 958.6
4367.2 kPa | 958.6
4384.2 kPa | 958.6
4401.5 kPa | 958.6
4419 kPa | 958.8
4440.1 kPa | 958.7
4458.6 kPa | 958.6
4475.9 kPa | 958.6
4487.7 kPa | 958.7
4498.8 kPa | 958.7
4507.3 kPa | 958.8
4516.1 kPa | 958.6
4528.2 kPa | 958.7
4546.9 kPa | 958.7
4567.4 kPa | 958.6
4588 kPa | 958.7
4612.9 kPa | 958.7
4634.2 kPa | 958.7
4656 kPa | 958.8
4677.4 kPa | 958.8
4703.4 kPa | 958.9
4725.2 kPa | 958.9
4747.6 kPa | 958.9
4774 kPa | 958.9
4796.4 kPa | 958.9
4819 kPa | 958.9
4845.9 kPa | 958.9
4869.6 kPa | 959
4893.1 kPa | 959
4921 kPa | 959
4945 kPa | 958.9
4968.9 kPa | 959
4997.5 kPa | 959
5022.2 kPa | 959
5047.1 kPa | 959.1
5072.5 kPa | 959.1
5103.3 kPa | 959.1
5129.3 kPa | 959.1
5156.3 kPa | 959.1
5189.2 kPa | 959.2
5217.4 kPa | 959.1
5240.4 kPa | 959.1
5260.4 kPa | 959.1
5280.7 kPa | 959.4
5304 kPa | 959.2
5323.4 kPa | 959.2
5347.3 kPa | 959.4
5367.7 kPa | 959.3
5388.5 kPa | 959.3
5408.9 kPa | 959.3
5429.5 kPa | 959.2
5454.7 kPa | 959.2
5475.8 kPa | 959.3
5497.3 kPa | 959.3
5522.7 kPa | 959.4
5543.9 kPa | 959.5
5565.6 kPa | 959.4
5591.3 kPa | 959.3
5613.3 kPa | 959.5
5635.4 kPa | 959.4
5662.4 kPa | 959.4
5684.7 kPa | 959.6
5707.9 kPa | 959.4
5735.2 kPa | 959.5
5758 kPa | 959.5
5781.4 kPa | 959.5
5804.9 kPa | 959.7
5833.6 kPa | 959.6
5857.5 kPa | 959.6
5886 kPa | 959.5
5910.2 kPa | 959.7
5935.4 kPa | 959.7
5964.8 kPa | 959.7
5989.9 kPa | 959.7
6015.7 kPa | 959.6
6041.2 kPa | 959.8
6072.5 kPa | 959.7
6099.5 kPa | 959.8
6127 kPa | 959.7
6154.7 kPa | 959.8
6180.8 kPa | 959.8
6202.1 kPa | 959.8
6224.2 kPa | 959.8
6246.2 kPa | 959.9
6272.6 kPa | 959.8
6294.4 kPa | 960
6316.9 kPa | 959.8
6344 kPa | 959.8
6366.6 kPa | 959.9
6393.8 kPa | 960
6417.3 kPa | 960
6441.6 kPa | 959.9
6466 kPa | 960
6489.5 kPa | 960.2
6513.7 kPa | 960
6542.9 kPa | 960
6566.4 kPa | 960
6595.3 kPa | 960.1
6619.5 kPa | 960.1
6644.3 kPa | 960
6674.1 kPa | 960.1
6699.1 kPa | 960.1
6724.7 kPa | 960.1
6755.6 kPa | 960.2
6782.2 kPa | 960.3
6809 kPa | 960.2
6835.2 kPa | 960.2
6861.8 kPa | 960.1
6893.8 kPa | 960.2
6920.9 kPa | 960.2
6948.7 kPa | 960.3
6976.5 kPa | 960.3
7009.5 kPa | 960.4
7037.3 kPa | 960.3
7072 kPa | 960.4
7101 kPa | 960.5
7131.4 kPa | 960.4
7161.8 kPa | 960.4
7190 kPa | 960.5
7218.1 kPa | 960.4
7240 kPa | 960.6
7262.7 kPa | 960.5
7289.6 kPa | 960.7
7312 kPa | 960.5
7334.9 kPa | 960.6
7357.8 kPa | 960.5
7385.4 kPa | 960.6
7408.7 kPa | 960.6
7433.1 kPa | 960.6
7457.4 kPa | 960.6
7486.4 kPa | 960.7
7510.8 kPa | 960.7
7534.2 kPa | 960.6
7558.2 kPa | 960.7
7587.6 kPa | 960.7
7611.9 kPa | 960.8
7637.3 kPa | 960.8
7666.8 kPa | 960.8
7692.5 kPa | 960.7
7717.9 kPa | 960.9
7743.3 kPa | 960.9
7773.8 kPa | 960.8
7799.7 kPa | 960.7
7826.1 kPa | 960.9
7857.2 kPa | 961
7883.6 kPa | 960.9
7910 kPa | 961
7941.6 kPa | 961
7968.3 kPa | 961
7995.6 kPa | 961
8028.4 kPa | 961
8056 kPa | 961.1
